# Measured values reported in publication PMC11311998, “AR71, Histamine H3 Receptor Ligand—In Vitro and In Vivo Evaluation (Anti-Inflammatory Activity, Metabolic Stability, Toxicity, and Analgesic Action)” (International Journal of Molecular Sciences, 2024).
# Tested on: BV-2 cells
# Test: cytokine/chemokine panel in LPS-stimulated microglia (Luminex)
# Format: cell-based, mouse
# From the text: In the research presented in this paper, we extended the study of the anti-inflammatory properties of AR71 by analysing the panel of cytokines/chemokines in mouse microglia with the Luminex® platform. We applied MILLIPLEX® Magnetic Bead Panel that consists of nine different analytes regarding inflammation. Some of the analytes were below the limit of quantification, and the reason for this is explained in the text.
# BV-2 cells (the murine microglial cell line) were purchased from the Interlab Cell Line Collection (ICLC) cell bank (ICLC, Genova, Italy). The cells were cultured in DMEM medium (Gibco no. 61965-026, ThermoFisher Scientific, Waltham, MA, USA) containing 10% charcoal-stripped foetal bovine serum (CS-FBS, Biowest no. S181f, batch no. S00NP) in a humidified incubator containing 95% air and 5% CO2 at 37 °C. CS-FBS was used to study the effect of compounds on neuroinflammation in vitro without the confounding effects of some cytokines that are naturally present in serum. Experiments were carried out with BV-2 cells from passages 7 to 13.
# The Luminex assay is a form of immunoassay that utilises magnetic microparticles and the same sandwiching techniques as ELISAs. To analyse the panel of cytokines/chemokines in mouse microglia, we used a MILLIPLEX® Magnetic Bead Panel (MCYTOMAG-70K, Millipore, Sigma-Aldrich, Darmstadt, Germany). The following analytes were studied: IFN-γ, IL-1β, IL-4, IL-6, IL-10, IL-12 (p40), IP-10, MIP-2, and TNF-α. The preparation of antibody-immobilised beads, quality controls, mouse cytokine standard, and immunoassay procedure, were performed according to the manufacturer’s protocol. All standards, quality controls, and samples were analysed in duplicate on the Luminex 200 multiplexing instrument (Luminex Corp, Austin, TX, USA). Sample analyte concentrations were determined using Belysa 1.1.0 curve-fitting software and the standard curve data from each run (Millipore, Sigma-Aldrich, Darmstadt, Germany). To perform multiplex cytokine analysis, BV-2 cells (150 × 10^3 cells/well/500 μL in 24-well plate) were pre-treated for 1 h with AR71, and then LPS (1 μg/mL) was added to induce inflammation. The cells were cultured for another 24 h. After this time, cell culture supernatants were collected, centrifuged to remove cell debris, and stored at −80 °C for analysis. To avoid multiple freeze/thaw cycles, the samples were aliquoted.
# [1] = 1 h pre-treatment, LPS 1 μg/mL, 24 h
smiles,measurement,setting,value
"COc1cc(/C=C/C(=O)c2ccc(OCCCN3CCCCC3)cc2)cc(OC)c1OC [AR71, (E)-3-(3,4,5-trimethoxyphenyl)-1-(4-(3-(piperidin-1-yl)propoxy)phenyl)prop-2-en-1-one]",reduction of IL-1β vs level after LPS stimulation,[1],2.66 times lower
same,reduction of IL-6 vs level after LPS stimulation,[1],5.94 times lower
same,reduction of TNF-α vs level after LPS stimulation,[1],1.77 times lower
same,effect on CXCL-10 (IP-10),in the presence of LPS,repressed
same,IL-4 level in the presence of LPS,with LPS,did not restore the level of IL-4 to the control point
same,"IL-4 level, compound alone","without LPS, vs unstimulated BV-2 cells",half the IL-4 content
